Reference: US11999727B2 (Tango Therapeutics, Inc., priority 2020, dated 2024)

Columns and labels:
PRMT5 [1] = target: T1, PRMT5 (Homo sapiens, UniProt O14744); experiment: PRMT5 biochemical IC50 assay with SAM as cofactor; details: PRMT5, SAM as cofactor; read-out: SAM IC50
T1 construct: purchased Viva (custom protein)

PRMT5 [2] = target: T1, PRMT5; experiment: PRMT5 biochemical IC50 assay with no cofactor; details: PRMT5, no cofactor
Excerpt: Table 1 indicates IC50 values (μM) against PRMT5 for exemplary compounds in the presence of SAM as cofactor, with no cofactor, and with MTA as cofactor, respectively (columns 4-6). […] Ki values can be calculated from the IC50 values as described in the Examples section. As detailed in the Examples section, for the assay performed in the presence of SAM, IC50=Ki×1.5 (Ki=IC50/1.5).

PRMT5 [3] = target: T1, PRMT5; experiment: PRMT5 biochemical IC50 assay with MTA as cofactor; details: PRMT5, MTA as cofactor; read-out: MTA IC50
[4] = system: HAP1 MTAP-deleted cell line; experiment: Viability assay, MTAP-deleted cell line; format: cell-based; details: Homo sapiens, HAP1, read-out: HAP1 MTAP deleted viability
Excerpt: Table 1 additionally indicates IC50 values in a viability assay for the MTAP-deleted cell line (column 10), indicating the effect of treatment with compound on cell survival.

[5] = read-out: No Cofactor/ rel IC50

T1 sequence (O14744 whole entry): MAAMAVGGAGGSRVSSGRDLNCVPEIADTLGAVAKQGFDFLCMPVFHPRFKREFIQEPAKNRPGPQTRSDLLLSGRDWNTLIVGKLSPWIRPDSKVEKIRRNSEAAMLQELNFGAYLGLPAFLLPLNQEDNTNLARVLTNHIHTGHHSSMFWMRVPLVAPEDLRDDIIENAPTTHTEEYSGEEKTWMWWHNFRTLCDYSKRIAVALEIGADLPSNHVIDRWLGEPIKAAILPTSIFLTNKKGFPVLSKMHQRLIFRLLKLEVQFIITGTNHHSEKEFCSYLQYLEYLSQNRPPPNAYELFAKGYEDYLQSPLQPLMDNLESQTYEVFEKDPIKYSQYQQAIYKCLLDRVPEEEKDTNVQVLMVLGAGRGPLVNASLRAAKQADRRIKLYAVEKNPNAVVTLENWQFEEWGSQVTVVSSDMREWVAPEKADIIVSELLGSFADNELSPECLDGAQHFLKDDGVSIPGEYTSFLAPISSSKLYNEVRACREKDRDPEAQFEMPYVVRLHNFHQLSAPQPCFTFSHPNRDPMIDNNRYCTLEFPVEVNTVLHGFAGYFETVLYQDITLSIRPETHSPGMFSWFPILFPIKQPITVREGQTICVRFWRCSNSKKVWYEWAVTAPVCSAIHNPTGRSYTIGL
T1 sequence (Q9BQA1 whole entry partner): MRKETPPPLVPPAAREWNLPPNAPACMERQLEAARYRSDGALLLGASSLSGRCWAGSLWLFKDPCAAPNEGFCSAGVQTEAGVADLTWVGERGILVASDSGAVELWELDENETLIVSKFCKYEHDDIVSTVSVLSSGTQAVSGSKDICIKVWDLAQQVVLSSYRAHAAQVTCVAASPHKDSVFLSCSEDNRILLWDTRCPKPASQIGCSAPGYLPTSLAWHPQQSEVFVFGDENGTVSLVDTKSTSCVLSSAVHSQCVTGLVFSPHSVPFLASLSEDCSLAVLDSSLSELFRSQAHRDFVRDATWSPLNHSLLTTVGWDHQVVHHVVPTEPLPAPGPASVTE

SMILES | IC50 (PRMT5 [1]) | IC50 (PRMT5 [2]; read-out: No Cofactor/rel IC50) | IC50 (PRMT5 [3]) | IC50 (PRMT5 [2]; [5]) | IC50 [4]
Cc1cc(NC(=O)C(=O)N2C[C@H](C)CC[C@H]2c2ccc3c(c2)CCC(=O)N3)cnc1C(F)(F)F (racemic) [Compound 650, 2-[(2R,5S)-5-Methyl-2-(2-oxo-3,4-dihydro-1H-quinolin-6-yl)-1-piperidyl]-N-[5-methyl-6-(trifluoromethyl)-3-pyridyl]-2-oxo-acetamide] | 50 to 500 nM | 50 to 500 nM | 50 to 500 nM | – | –
Cc1cc(NC(=O)C(=O)N2C[C@H](C)CC[C@H]2c2ccc3c(c2)CC(=O)N3)cnc1N (single isomer, unassigned) [Compound 677] | – | – | – | – | > 10000 nM
Cc1cc(NC(=O)C(=O)N2C[C@@H](C)CC[C@@H]2c2ccc(C(F)F)cc2)cnc1N (single isomer, unassigned) [Compound 410] | – | – | – | – | > 10000 nM
Cc1cc(NC(=O)C(=O)N2C[C@H](C)CC[C@H]2c2ccc3c(c2)C(=O)NC3)cnc1N (single isomer, unassigned) [Compound 656] | > 500 nM | > 500 nM | > 500 nM | – | –
Cc1cc([C@H]2CC[C@H](C)CN2C(=O)C(=O)Nc2cncc(C(N)=O)c2)ccc1O (single isomer, unassigned) [Compound 330] | > 500 nM | > 500 nM | > 500 nM | – | –
C[C@@H]1CC[C@H](C2CCCCC2)N(C(=O)C(=O)Nc2cncc(C(N)=O)c2)C1 (single isomer, unassigned) [Compound 127] | > 500 nM | – | > 500 nM | > 500 nM | –
CC[C@H]1CC[C@H](c2ccccc2)N(C(=O)C(=O)Nc2cncc(C)c2)C1 (single isomer, unassigned) [Compound 18] | > 500 nM | – | > 500 nM | – | –
Cc1cncc(NC(=O)C(=O)N2CC(C)CC[C@@H]2c2cccc(F)c2)c1 (single isomer, unassigned) [Compound 84] | > 500 nM | – | > 500 nM | > 500 nM | –
Cc1cncc(NC(=O)C(=O)N2C(C)C(C)CC[C@H]2c2ccccc2)c1 (single isomer, unassigned) [Compound 41] | – | – | – | – | > 10000 nM
Cc1cc(NC(=O)C(=O)N2C[C@@H](C)CC[C@@H]2c2cccnc2)cnc1N (single isomer, unassigned) [Compound 309] | > 500 nM | > 500 nM | > 500 nM | – | –
NC(=O)c1cncc(NC(=O)C(=O)N2C[C@@H](CO)CC[C@H]2c2ccccc2)c1 (racemic) [Compound 285, 5-(2-(5-(hydroxymethyl)-2-phenylpiperidin-1-yl)-2-oxoacetamido)nicotinamide] | > 500 nM | > 500 nM | 50 to 500 nM | – | –

Further lines, with some results ahead:

IC50 (PRMT5 [1]) | IC50 (PRMT5 [2]; read-out: No Cofactor/rel IC50) | IC50 (PRMT5 [3]) | IC50 (PRMT5 [2]; [5]) | SMILES | IC50 [4]
> 500 nM | > 500 nM | > 500 nM | – | C[C@@H]1CC[C@@H](c2ccc(C(F)(F)F)c(Cl)c2)N(C(=O)C(=O)Nc2cncc(C(N)=O)c2)C1 (single isomer, unassigned) [Compound 647] | –
> 500 nM | > 500 nM | > 500 nM | – | Cc1cc(NC(=O)C(=O)N2C[C@H](C)[C@H](C)C[C@@H]2c2ccccc2)cnc1N (single isomer, unassigned) [Compound 299] | –
> 500 nM | > 500 nM | > 500 nM | – | C[C@@H]1CC[C@@H](c2cc(Cl)cc(C(F)(F)F)c2)N(C(=O)C(=O)Nc2cncc(C(N)=O)c2)C1 (single isomer, unassigned) [Compound 653] | –
> 500 nM | > 500 nM | > 500 nM | – | C[C@@H]1C[C@@H](C)[C@@H](c2ccccc2)N(C(=O)C(=O)Nc2cncc(C(N)=O)c2)C1 (single isomer, unassigned) [Compound 286, 5-(2-(3,5-dimethyl-2-phenylpiperidin-1-yl)-2-oxoacetamido)nicotinamide] | –
> 500 nM | – | > 500 nM | > 500 nM | Cc1ccc([C@H]2CC[C@H](C)CN2C(=O)C(=O)Nc2cncc(C)c2)cc1 (single isomer, unassigned) [Compound 12] | –
50 to 500 nM | 50 to 500 nM | 50 to 500 nM | – | CNc1ccc([C@@H]2CC(F)(F)[C@@H](C)CN2C(=O)C(=O)Nc2cnc(N)c(C)c2)cn1 (racemic) [Compound 1054] | –
> 500 nM | > 500 nM | > 500 nM | – | C[C@H]1C[C@@H](C)[C@H](c2ccccc2)N(C(=O)C(=O)Nc2cncc(C(N)=O)c2)C1 (single isomer, unassigned) [Compound 275, 5-(2-(3,5-dimethyl-2-phenylpiperidin-1-yl)-2-oxoacetamido)nicotinamide] | –
